# Peptide text beside a SMILES is read from it.
# Tests used:
# [1] = system: Chinese hamster ovary cells
# [2] = system: New Zealand White rabbits; experiment: Induced disc degeneration rabbit model (injectable therapy); assay type: in vivo
# Method: FIG. 14 Evaluation of an injectable therapy in a rabbit model of degenerative disc disease. • (A) In this animal model, three lumbar intervertebral discs between the L3 and L6 vertebrae were punctured and their nucleus pulposus (NP) content aspirated. One month post-injury, two different treatments were injected into the NP space. The first treatment consists of 20 mg/mL of Ac-LIVAGK-NH2 (SEQ ID NO: 20) in PBS and gadolinium-DTPA (Gd-DTPA), a T1 MRI contrast agent. The second therapy consists of labeled donor rabbit NP cells encapsulated in 20 mg/mL of Ac-LIVAGK-NH2 (SEQ ID NO: 20) in PBS. The cells were labeled with FITC-conjugated iron oxide nanoparticles, which are T2 MRI contrastophores. […] In comparison, damaged untreated discs (D) are darker. […] The healthy disc was obtained from animal R245 (disc L2/L3), while the damaged disc was from R334 (L4/L5). The hydrogel treated disc imaged is L3/L4 from R245 and the cell therapy disc is L5/L6 of R328. At higher magnification, faintly fluorescent cells could be observed for discs that received cell therapy.
# Induced disc degeneration rabbit model. […]
# We designed an injectable therapy wherein our stimuli-responsive peptide Ac-LIVAGK-NH2 (SEQ ID NO: 20) was administered as a low viscosity solution which subsequently gels in situ. This therapy was evaluated in the induced disc degeneration rabbit model. […]
# [3] = Rheology of hydrogels, storage modulus G'; assay type: physicochemical
# Method: Hydrogel samples were prepared in polydimethysiloxane moulds to obtain approximately 1 mm thick, 8 mm diameter discs. Dynamic strain and oscillatory frequency sweep experiments were carried out using the ARES-G2 Rheometer (TA Instruments, Piscataway, N.J.) with 8 mm titanium parallel plate geometry. The effects of varying several parameters on viscoelastic properties were studied as follows: • (1) Effect of varying concentration • (2) Effect of varying ionic strength of the solution (water vs saline vs PBS) • (3) Effect of varying pH Extrusion from 27 Gauge Needle
# Rheology. Hydrogel samples were prepared in polydimethysiloxane moulds to obtain approximately 1 mm thick, 8 mm diameter discs. Dynamic strain and oscillatory frequency sweep experiments were carried out using the ARES-G2 Rheometer (TA Instruments, Piscataway, N.J.) with 8 mm titanium parallel plate geometry.
# [4] = Stimuli-responsive gelation (minimum gelation concentration); assay type: physicochemical
# Method: Ac-LIVAGK-NH2 (SEQ ID NO: 20) forms hydrogels at 20 mg/mL in water, 12 mg/mL in saline, 7.5 mg/mL in PBS, and 10 mg/mL in 10 mM NaOH.(B) The rigidity, as represented by the storage modulus (G′), of 20 mg/mL Ac-LIVAGK-NH2 hydrogels increases by one order of magnitude to 10 kPa when dissolved in normal saline(NaCl) as compared to water at 1 kPa. In phosphate buffered saline (PBS), G′ increases to 40 kPa. The stiffness also increases with peptide concentration. (C) The addition of sodium hydroxide (NaOH) enhances the rigidity of 20 mg/mL Ac-LIVAGK-NH2 (SEQ ID NO: 20) hydrogel from 1 kPa in water to 80 kPa. The rigidity increases with NaOH concentration. (D) Hydrogel droplet arrays of various dimensions can be obtained by mixing equivolumes of peptide solution (such as 10 mg/mL Ac-ILVAGK-NH2)(SEQ ID NO: 20) and PBS containing small molecules. Bioactive moieties can also be encapsulated; 1 μL droplets with green food colouring and 488 nm emission quantum dots, 2 μL droplets with red food colouring and 568 nm emission fluorophore conjugated to a secondary antibody, and 5 μL droplets with methylene blue and DAPI. (E) Hydrogel “noodles” are obtained by extruding 5 mg/mL Ac-ILVAGK-NH2 (SEQ ID NO: 20) solution through a 27 gauge needle into a concentrated salt bath.
# • Peptide sequence: Ac-LIVAGD-COOH (SEQ ID NO: 17) • Molecular weight: 629.56 • (1) Temperature Sweep Study for Ac-LD6 (L) (SEQ ID NO : 17): • (a) The peptide mixture was then placed on rheometer lower plate. […]
# [5] = system: guinea pigs; conditions: guinea pig, in vivo
# [6] = Self-assembly into aggregates and fibres in aqueous solution; assay type: physicochemical
# Method: It is in some embodiments stable in aqueous solution at physiological conditions at ambient temperature for a period of time in the range from 1 day to 1 month or more. It may in some embodiments be stable in aqueous solution at physiological conditions at 90° C. for at least 1 hour, at least 2 hours, at least 3 hours, at least 4 hours or at least 5 hours An amphiphilic linear sequence of an amphiphilic peptide and/or peptoid including an amphiphilic linear peptide and/or peptoid, is capable of providing a self assembling α-helical fiber in aqueous solution under physiological conditions. The peptides/peptoids (typically 3-7-mers) in the L- or D-form can self assemble into supramolecular helical fibers which are organized into mesh-like structures mimicking biological substances such as collagen. It has previously been observed in X-ray crystallography that peptides of a length of 3 to 6 amino acids with repetitive alanine containing sequences and an acetylated […] take a helical conformation (Hatakeyama, Y, et al, Angew. Chem. Int. Ed. (2009) 8695-8698). Using peptides with an amphiphilic sequence, Ac-LD6 (L), the formation of aggregates has for example been observed already at 0.1 mg/ml. […]
compound,measurement,setting,value
CC[C@H](C)[C@H](NC(=O)[C@H](CC(C)C)NC(C)=O)C(=O)N[C@H](C(=O)N[C@@H](C)C(=O)NCC(=O)N[C@@H](CCCCN)C(N)=O)C(C)C [Ac-LIVAGK-NH2] (Ac-LIVAGK-NH2),Breaks SB (chromosome break),[1],2
same,Breaks TB (chromatid break),[1],3
same,Cells with aberrations (excluding gaps),[1],5
same,D (deletion),[1],0
same,Gaps SG (chromosome gap),[1],2
same,Inter Chromosomal Rearrangements CR (complex),[1],0
same,Inter Chromosomal Rearrangements DC (dicentric chromosome),[1],0
same,Inter Chromosomal Rearrangements QR (quadradial),[1],0
same,Inter Chromosomal Rearrangements R (ring),[1],0
same,Inter Chromosomal Rearrangements TR (triradial),[1],0
same,Other aberrations DM (double minute),[1],0
same,Other aberrations PV (pulverized),[1],0
same,mutagenicity (genotoxicity assays),[1],non-mutagenic
same,immune response and tissue integration in histology sections of discs,"[2]; 20 mg/mL in PBS with Gd-DTPA, or with labeled donor rabbit NP cells, two month post-treatment",integrated with the tissue and did not elicit an immune response
same,time to gelation in situ,[2]; approximately 100 μL of 20 mg/mL peptide in PBS injected into a damaged NP,≤ 5 min
same,storage modulus (G′),[3]; 20 mg/mL hydrogel in normal saline (NaCl),10 kPa
same,storage modulus (G′),[3]; 20 mg/mL hydrogel in phosphate buffered saline (PBS),40 kPa
same,storage modulus (G′),[3]; 20 mg/mL hydrogel in water,1 kPa
same,storage modulus (G′),[3]; 20 mg/mL hydrogel with addition of sodium hydroxide (NaOH),80 kPa
same,concentration at which hydrogels form,[4]; in 10 mM NaOH,10000 µg/mL
same,concentration at which hydrogels form,[4]; in PBS,7500 µg/mL
same,concentration at which hydrogels form,[4]; in saline,12000 µg/mL
same,concentration at which hydrogels form,[4]; in water,20000 µg/mL
same,irritation or allergic reactions,[5],no irritation or allergic reactions
same,reactions following subsequent immune challenge,[5],no reactions were observed
same,systemic signs of toxicity,[5],did not exhibit any systemic signs of toxicity
Ac-LIVAGD-OH [Ac-LD6 (L)],concentration at which formation of aggregates is observed,[6],100 µg/mL
same,concentration at which peptide monomers align to form fibrous structures,[6],1000 µg/mL

# Reference: patent US10179194B2, “Self-assembling peptides, peptidomimetics and peptidic conjugates as building blocks for biofabrication and printing” (Agency for Science, Technology and Research, priority 2013, dated 2019)
